# Measured values taken from patent US20250326767A1, “NOVEL BENZOTHIAZOLE DERIVATIVES” (CARNA BIOSCIENCES, INC., priority 2021, published 2025).
# Key:
# Assay in all cases: Inhibition test on activity of DYRK family, mobility shift assay (MSA)
# Assay type in all cases: biochemical
# [1] = molecular target: T1, DYRK1B (Homo sapiens, UniProt Q9Y463); details: ATP 200 μM; FITC-labeled DYRKtide peptide substrate; room temperature 1 hour; read-out: Inhibitory Activity DYRK1B (IC50 class)
# T1 construct: purchased Carna Biosciences, Inc. 04-131
# Procedure: (§1) The kinase activity was measured by mobility shift assay (MSA) method using QuickScout Screening Assist™ MSA (commercially available kit manufactured by Carna Biosciences, Inc.). The substrate of the kinase reaction used was an FITC-labeled DYRKtide peptide included in the kit. An assay buffer [20 mM HEPES, 0.01% Triton X-100™, 2 mM dithiothreitol, pH 7.5] was used to create a substrate mixture solution with a substrate (4 μM), MgCl2 (20 mM), and ATP (DYRK1A: 100 μM; DYRKIB: 200 μM; DYRK2:40 μM; and DYRK3:20 μM). In addition, kinases (DYRK1A: manufactured by Carna Biosciences, Inc., Cat. No. 04-130; DYRK1B: manufactured by Carna Biosciences, Inc., Cat. No. 04-131; DYRK2; manufactured by Carna Biosciences, Inc., Cat. No. 04-132; and DYRK3; manufactured by Carna Biosciences, Inc., Cat. No. 04-133) were diluted with the assay buffer to prepare enzyme solutions (DYRK1A: 0.2 ng/μL; DYRK1B: 0.08 ng/μL; DYRK2: 0.04 ng/μL; and DYRK3:0.25 ng/μL). The 10 mM solution of the test compound in DMSO was further diluted with DMSO to 10 levels of the concentration (0.00003 mM, 0.0001 mM, 0.0003 mM, 0.001 mM, 0.003 mM, 0.01 mM, 0.03 mM, 0.1 mM, 0.3 mM, and 1 mM), each of which was subjected to 25-fold dilution with the assay buffer to obtain a drug solution (4% DMSO solution). 5 μL of the drug solution or a control solution (4% DMSO-assay buffer), 5 μL of the substrate mixture solution, and 10 μL of the enzyme solution were mixed in the wells of a polypropylene 384-well plate and allowed to react at room temperature for 1 hour, and then the reaction was quenched by adding 60 μL of the termination buffer included in the kit. Subsequently, the quantities of the substrates(S) and the phosphorylated substrate (P) in the reaction solution were measured using LabChip EZ Reader II system (manufactured by Caliper Life Sciences) according to the protocol of the assay kit.
# (§2) The heights of the peaks of the “substrate” and the “phosphorylated substrate” were expressed as S and P, respectively, and a blank containing the assay buffer instead of the enzyme solution was also measured.
# (§3) The inhibition rate (%) of the test compound was calculated according to the following equation: […]
# (§4) wherein, A, B, and C represent P/(P+S) of the blank well, P/(P+S) of the control solution well, and P/(P+S) of the compound-containing well, respectively.
# (§5) The IC50 value was calculated via a regression analysis of the inhibition rate and the test compound concentration (logarithmic value).
# [2] = molecular target: T2, DYRK2 (Homo sapiens, UniProt Q92630); details: ATP 40 μM; FITC-labeled DYRKtide peptide substrate; room temperature 1 hour; read-out: Inhibitory Activity DYRK2 (IC50 class)
# T2 construct: purchased Carna Biosciences, Inc. 04-132
# T2 sequence (Q92630 1-601): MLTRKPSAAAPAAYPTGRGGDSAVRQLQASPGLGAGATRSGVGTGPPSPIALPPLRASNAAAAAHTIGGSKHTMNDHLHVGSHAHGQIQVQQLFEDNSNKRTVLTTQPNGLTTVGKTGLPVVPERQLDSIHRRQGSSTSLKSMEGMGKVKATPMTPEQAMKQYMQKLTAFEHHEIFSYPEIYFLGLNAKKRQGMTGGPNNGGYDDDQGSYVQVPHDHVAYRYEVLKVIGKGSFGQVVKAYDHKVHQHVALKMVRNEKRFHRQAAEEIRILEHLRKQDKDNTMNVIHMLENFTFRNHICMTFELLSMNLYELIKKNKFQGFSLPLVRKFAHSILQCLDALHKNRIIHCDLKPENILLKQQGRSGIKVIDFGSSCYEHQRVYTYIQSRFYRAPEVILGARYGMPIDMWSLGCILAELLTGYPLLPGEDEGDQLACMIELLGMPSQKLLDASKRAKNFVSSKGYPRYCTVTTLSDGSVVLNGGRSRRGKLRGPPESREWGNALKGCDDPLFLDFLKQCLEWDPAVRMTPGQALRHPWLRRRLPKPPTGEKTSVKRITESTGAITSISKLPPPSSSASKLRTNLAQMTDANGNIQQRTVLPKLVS
# Procedure: as §1, §2, §3, §4, §5
# [3] = molecular target: T3, DYRK1A (Homo sapiens, UniProt Q13627); details: ATP 100 μM; FITC-labeled DYRKtide peptide substrate; room temperature 1 hour; read-out: Inhibitory Activity DYRK1A (IC50 class)
# T3 construct: purchased Carna Biosciences, Inc. 04-130
# Procedure: as §1, §2, §3, §4, §5
# [4] = molecular target: T4, DYRK3 (Homo sapiens, UniProt O43781); details: ATP 20 μM; FITC-labeled DYRKtide peptide substrate; room temperature 1 hour; read-out: Inhibitory Activity DYRK3 (IC50 class)
# T4 construct: purchased Carna Biosciences, Inc. 04-133
# T4 sequence (O43781 1-588): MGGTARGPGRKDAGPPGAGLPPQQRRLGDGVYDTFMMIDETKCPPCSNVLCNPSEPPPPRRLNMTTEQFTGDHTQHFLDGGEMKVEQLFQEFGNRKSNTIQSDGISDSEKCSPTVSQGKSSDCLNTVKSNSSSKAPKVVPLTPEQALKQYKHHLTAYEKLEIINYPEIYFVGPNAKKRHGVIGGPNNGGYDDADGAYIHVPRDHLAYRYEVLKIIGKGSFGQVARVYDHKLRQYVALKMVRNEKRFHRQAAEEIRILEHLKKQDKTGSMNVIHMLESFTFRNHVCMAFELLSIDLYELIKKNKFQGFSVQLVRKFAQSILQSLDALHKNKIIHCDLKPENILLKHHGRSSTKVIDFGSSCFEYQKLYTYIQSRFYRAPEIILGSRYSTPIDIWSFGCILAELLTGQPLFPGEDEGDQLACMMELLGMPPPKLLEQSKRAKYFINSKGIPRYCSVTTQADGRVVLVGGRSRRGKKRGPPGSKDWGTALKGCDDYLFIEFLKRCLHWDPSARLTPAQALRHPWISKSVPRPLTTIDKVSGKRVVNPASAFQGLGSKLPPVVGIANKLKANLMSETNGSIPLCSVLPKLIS
# Procedure: as §1, §2, §3, §4, §5
# T1 sequence (Q9Y463 whole entry): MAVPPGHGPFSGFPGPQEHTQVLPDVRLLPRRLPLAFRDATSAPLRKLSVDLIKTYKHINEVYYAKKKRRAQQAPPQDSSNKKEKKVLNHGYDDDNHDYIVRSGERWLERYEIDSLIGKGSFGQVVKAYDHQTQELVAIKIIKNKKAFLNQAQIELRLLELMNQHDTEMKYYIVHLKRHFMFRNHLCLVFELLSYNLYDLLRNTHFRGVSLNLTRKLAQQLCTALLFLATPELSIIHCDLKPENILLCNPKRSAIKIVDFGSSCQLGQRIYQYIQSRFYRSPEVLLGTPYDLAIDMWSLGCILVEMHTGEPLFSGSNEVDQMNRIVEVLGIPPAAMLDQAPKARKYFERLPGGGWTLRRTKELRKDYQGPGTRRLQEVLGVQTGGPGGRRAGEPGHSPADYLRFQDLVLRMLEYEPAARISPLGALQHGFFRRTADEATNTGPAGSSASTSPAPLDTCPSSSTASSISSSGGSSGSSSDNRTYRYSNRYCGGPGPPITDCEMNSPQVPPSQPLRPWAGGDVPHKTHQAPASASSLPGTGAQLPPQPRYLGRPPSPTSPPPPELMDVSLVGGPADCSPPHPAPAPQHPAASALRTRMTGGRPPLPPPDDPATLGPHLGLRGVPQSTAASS
IC50 [1],IC50 [2],IC50 [3],IC50 [4],Compound
< 10 nM,100 to 1000 nM,< 10 nM,100 to 1000 nM,"CC#CC1CCNC(=O)N1c1nc2c3c(ccc2s1)OCCO3 (single isomer, unassigned) [Example 5, 1-(7,8-dihydro-[1,4]dioxyno[2′,3′:5,6]benzo[1,2-d]thiazol-2-yl)-6-(prop-1-yn-1-yl)tetrahydropyrimidin-2(1H)-one]"
> 1000 nM,> 1000 nM,,> 1000 nM,"CC#C[C@H]1[C@H](C)CNC(=O)N1c1nc2c3c(ccc2s1)OCC3 (stereo in doubt) [Example 13, (5R*,6R*)-1-(7,8-dihydrobenzofuro[4,5-d]thiazol-2-yl)-5-methyl-6-(prop-1-yn-1-yl)tetrahydropyrimidin-2(1H)-one]"
> 1000 nM,> 1000 nM,> 1000 nM,> 1000 nM,"CC#CC1C[C@H](C)NC(=O)N1c1nc2c3c(ccc2s1)OCC3 (stereo in doubt) [Example 16, (4S,6S)-1-(7,8-dihydrobenzofuro[4,5-d]thiazol-2-yl)-4-methyl-6-(prop-1-yn-1-yl)tetrahydropyrimidin-2(1H)-one]"
10 to 100 nM,> 1000 nM,10 to 100 nM,> 1000 nM,"CC#CC1C[C@H](C)NC(=O)N1c1nc2c3c(ccc2s1)OCC3 (stereo in doubt) [Example 17, (4S,6R)-1-(7,8-dihydrobenzofuro[4,5-d]thiazol-2-yl)-4-methyl-6-(prop-1-yn-1-yl)tetrahydropyrimidin-2(1H)-one]"
> 1000 nM,> 1000 nM,> 1000 nM,> 1000 nM,"CC#C[C@H]1C[C@@H](C)NC(=O)N1c1nc2c3c(ccc2s1)OCC3 [Example 14, (4R,6R)-1-(7,8-dihydrobenzofuro[4,5-d]thiazol-2-yl)-4-methyl-6-(prop-1-yn-1-yl)tetrahydropyrimidin-2(1H)-one]"
10 to 100 nM,> 1000 nM,10 to 100 nM,> 1000 nM,"CC#C[C@@H]1C[C@@H](C)NC(=O)N1c1nc2c3c(ccc2s1)OCC3 [Example 15, (4R,6S)-1-(7,8-dihydrobenzofuro[4,5-d]thiazol-2-yl)-4-methyl-6-(prop-1-yn-1-yl)tetrahydropyrimidin-2(1H)-one]"
